According to patent US8093183B2, “Methods for using polyol esters to control pests” (S.C. Johnson & Son, Inc., priority 2004, dated 2012):
Where two headings read alike, the source gives them in different places.

Test system: German cockroaches
Conditions: spraying about three grams of formulation
Excerpt: In our experiments we created aqueous solutions of sucrose octanoate and sorbitol octanoate by diluting the more concentrated formulations provided by the aforesaid manufacturers. We created varied concentrations ranging from 0.05% through 10%.
We tested our formulations by spraying them on cockroaches, ants, crickets, silverfish, wasps, bristletails, hornets, centipedes, earwigs, spiders and sowbugs.

sucrose octanoate
kill at 24 hours (0.1% concentration): essentially no kill | kill at 24 hours (1% concentration): about 80% | kill (5% concentration): 100%
